The values that follow come from patent publication US12215095B2, “Compounds for the treatment of respiratory diseases” (Tianli Biotech Pty Ltd, priority 2018, dated 2025).

Marks after values point to notes of the source that are not given here. A value given as a limit tells only on which side of the number the result lay.

What is called pIC50 is the IC50 on a negative log10 scale, so that one unit is a factor of ten.

One test relates to TGF-β-induced IL-11. Put plainly: Human parenchymal fibroblast cell assay: inhibition of TGF-β-induced IL-11 (ELISA). It is filed as cell-based. The note with it: primary human parenchymal fibroblasts, 100 pM TGF-β1, 16-24 hours, 4.00 is assigned to compounds that failed to cause 50% or more inhibition at 100 µM; for IC50: Fibroblast, read-out: pIC50 IL-11 suppression (converted). How it is done:
Primary human parenchymal fibroblast cells (pFbs) were cultured from parenchyma of lung resection specimens and from non-transplanted lungs of donors without chronic respiratory disease. pFbs were passaged in Dulbecco's Modified Eagle's Media (DMEM) containing 10% (v/v) heat-inactivated fetal calf serum (FCS), 15 mM HEPES, 0.2% (v/v) sodium bicarbonate, 2 mM L-glutamine, 1% (v/v) non-essential amino acids, 1% (v/v) sodium pyruvate, 2.5 μg/mL amphotericin, 5 IU/mL penicillin and 50 μg/mL streptomycin.
Prior to experimentation, pFb were incubated in serum-free DMEM containing 0.25% bovine serum albumin (BSA) and insulin-transferrin-selenium-containing supplement (Monomed A; CSL, Parkville, Melbourne, Australia). The cells were incubated with small molecular CK1δelta inhibitors (0.1-10 μM) for 30 min prior to 100 pM TGF-β1 (R&D Systems, Minneapolis, MN) and the incubation continued for 16-24 hours prior to harvest of supernatant for detection of immunoreactive IL-11. Stock solutions were made as 10 mM in 100% DMSO and diluted to the required concentration in medium containing 0.1% DMSO (final concentration).
Supernatants were collected for measurement of IL-11 (R&D DuoSet, DY218) by ELISA following the manufacturers' instructions. Generally, capture antibodies were initially diluted to the recommended concentrations using PBS buffer, and then used to coat the wells of 96-well microplates (Greiner, #655061) by adding 50 μL/well and incubated overnight at room temperature. Next day, solutions were discarded and wells were washed 3 times with wash buffer (PBS containing 0.1% (v/v) Tween-20) prior to the addition of 200 μL of blocking solution (PBS containing 1% (v/v) BSA) for 1 hour to block non-specific sites. Plates were then washed 3 times with wash buffer and 50 μL of samples or standards were then added to wells and incubated for 2 hours at room temperature. After the incubation, plates were washed 3 times with wash buffer and 50 μL of detection antibodies were added to wells and incubated for 2 hours at room temperature. Plates were then washed 3 times before adding streptavidin-conjugated horseradish peroxidase (at the recommended concentrations) for 45 min. Plates were then washed 5 times with wash buffer and 100 μL TMB substrate solution (equal parts A and B, BD Biosciences) was added to each well until sufficient signals emerged. The reactions were inactivated by adding 100 μL sulphuric acid (2M H2SO4). The absorbance was measured at 450 nm using the Multiskan Ascent® plate reader. The absorbance of the cytokine standards was fitted to a logistic equation, allowing the concentrations of cytokine in samples to be determined.
pIC50 values (the negative log of the concentration suppressing IL-11 level by 50%) for inhibition of TGF-β-induced IL-11 were interpolated from the linear regression of log concentration small molecule versus IL-11 level (Table 4 and FIG. 2).

The target in a further test is casein kinase 1δ (Homo sapiens (Human), UniProt P48730). Put plainly: Kinase inhibition assay (HotSpot assay, Reaction Biology Corp). It counts as biochemical. The note with it: 10 μM ATP, 10-dose IC50 mode, 3-fold serial dilution starting at 10 μM; for IC50: read-out: CK1δ IC50; for pIC50: casein kinase 1δ.
Chain of casein kinase 1δ (P48730 whole entry): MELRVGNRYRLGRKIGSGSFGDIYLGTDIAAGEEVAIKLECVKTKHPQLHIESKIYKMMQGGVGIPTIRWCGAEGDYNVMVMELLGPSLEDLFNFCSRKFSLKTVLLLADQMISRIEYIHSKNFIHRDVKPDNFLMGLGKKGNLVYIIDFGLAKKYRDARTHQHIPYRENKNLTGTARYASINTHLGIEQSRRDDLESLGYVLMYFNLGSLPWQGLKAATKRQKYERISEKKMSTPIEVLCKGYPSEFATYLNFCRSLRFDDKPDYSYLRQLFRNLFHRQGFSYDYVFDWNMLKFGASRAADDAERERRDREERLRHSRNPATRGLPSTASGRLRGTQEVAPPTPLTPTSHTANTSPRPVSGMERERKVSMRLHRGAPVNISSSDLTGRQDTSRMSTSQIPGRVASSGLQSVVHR

For the molecule `Fc1ccc(-c2ncn(C3CCCCC3)c2-c2ccnc(NCCCc3ccccc3)n2)cc1` [ZH3-98, 4-(1-Cyclohexyl-4-(4-fluorophenyl)-1H-imidazol-5-yl)-N-(3-phenylpropyl)pyrimidin-2-amine], the IC50 with TGF-β-induced IL-11 is 2 µM. Besides, at casein kinase 1δ, the IC50 is 0.00254 µM and the negative-log IC50 (pIC50) turned out to be 8.59.
As to `Fc1ccc(-c2ncn(C3CCCCC3)c2-c2ccnc(NCc3ccccn3)n2)cc1` [ZH2-130, 4-(1-Cyclohexyl-4-(4-fluorophenyl)-1H-imidazol-5-yl)-N-(pyridin-2-ylmethyl)pyrimidin-2-amine(2-picolyl)], the figures for the IC50 in the test with TGF-β-induced IL-11 and at casein kinase 1δ were 0.724 µM and 0.00193 µM, respectively. The same molecule registered a pIC50 on casein kinase 1δ of 8.71.
As for `FCn1cnc(-c2ccc(F)cc2)c1-c1ccnc(NCCCc2ccccc2)n1` [ZH2-122], the IC50 at casein kinase 1δ is 0.00507 µM.
In the case of `Fc1ccc(-c2ncn(C3CCCCC3)c2-c2ccnc(NCC3CCCCC3)n2)cc1` [ZH2-98, 4-(1-Cyclohexyl-4-(4-fluorophenyl)-1H-imidazol-5-yl)-N-(cyclohexylmethyl)pyrimidin-2-amine], the IC50 in the test on TGF-β-induced IL-11 is 1.78 µM. For the same molecule, on casein kinase 1δ, the IC50 is 0.0126 µM and the pIC50 is recorded as 7.91.
As to `Fc1ccc(-c2ncn(C3CCCCC3)c2-c2ccnc(NCC3CCCC3)n2)cc1` [ZH2-86, 4-(1-Cyclohexyl-4-(4-fluorophenyl)-1H-imidazol-5-yl)-N-(cyclopentylmethyl)pyrimidin-2-amine], in the test on TGF-β-induced IL-11, the IC50 is 1.91 µM. Also, at casein kinase 1δ, the IC50 is 0.00716 µM and the pIC50 came to 8.15.
As for `CC(C)(F)n1cnc(-c2ccc(F)cc2)c1-c1ccnc(NCC2CCC(F)(F)CC2)n1` [ZH2-62], in the test on TGF-β-induced IL-11, the “pIC50 IL-11 suppression” value is given as < 4.00*. Further, at casein kinase 1δ, the pIC50 was 7.42.
As for `C[C@H](Nc1nccc(-c2c(-c3ccc(F)cc3)ncn2C2CCCCC2)n1)C1CCCCC1` [ZH3-90, (S)-4-(1-Cyclohexyl-4-(4-fluorophenyl)-1H-imidazol-5-yl)-N-(1-cyclohexylethyl)pyrimidin-2-amine], in the test with TGF-β-induced IL-11, the IC50 was greater than 100 µM. Further, on casein kinase 1δ, the pIC50 is given as 6.57.
Regarding `Fc1ccc(-c2ncn(C3CCCCC3)c2-c2ccnc(NCC3CCOCC3)n2)cc1` [ZH2-102, 4-(1-Cyclohexyl-4-(4-fluorophenyl)-1H-imidazol-5-yl)-N-((tetrahydro-2H-pyran-4-yl)methyl)pyrimidin-2-amine], the IC50 with TGF-β-induced IL-11 is 0.407 µM. On casein kinase 1δ, the IC50 worked out at 0.0017 µM and the pIC50 was 8.77.
The like results for `C[C@@H](Nc1nccc(-c2c(-c3ccc(F)cc3)ncn2C2CCCCC2)n1)C1CCCCC1` [ZH3-94, (R)-4-(1-Cyclohexyl-4-(4-fluorophenyl)-1H-imidazol-5-yl)-N-(1-cyclohexylethyl)pyrimidin-2-amine] were, in that order, 0.912 µM, 0.0344 µM and 7.46.
With `Fc1ccc(-c2ncn(C3CCCCC3)c2-c2ccnc(NCc3ccc(-c4ccccc4)cc3)n2)cc1` [ZH2-66, N-([1,1′-Biphenyl]-4-ylmethyl)-4-(1-cyclohexyl-4-(4-fluorophenyl)-1H-imidazol-5-yl)pyrimidin-2-amine], the IC50 in the test with TGF-β-induced IL-11 is greater than 100 µM. In addition, on casein kinase 1δ, the pIC50 was 5.86.
Take `Fc1ccc(-c2ncn(C3CCCCC3)c2-c2ccnc(NCC3CCC(F)(F)CC3)n2)cc1` [ZH3-74, 4-(1-Cyclohexyl-4-(4-fluorophenyl)-1H-imidazol-5-yl)-N-((4,4-difluorocyclohexyl)methyl)pyrimidin-2-amine]: the IC50 in the test on TGF-β-induced IL-11 was 6.76 µM. For the same molecule, on casein kinase 1δ, the IC50 stood at 0.00297 µM and the pIC50 stood at 8.53.
